Reference: ChEMBL document CHEMBL1201862, “PubChem BioAssay data set” (2004)
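Grown in 96-well plates, cells were treated for 48 hours with each compound at five concentrations. Insufficient inhibition: endpoint recorded as highest concentration tested. Abbreviation: GI50, concentration required for 50% inhibition of growth.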 Calls of active or inactive are those of the source. Rule as the data show it: active = GI50 up to about 1.1 µM and inactive = higher.

Experiments:
Assay in all cases: DTP human tumour cell line panel, 48 h
HCC 2998 = system: HCC 2998
OVCAR-5 = system: OVCAR-5
UACC-257 = system: UACC-257
SNB-75 = system: SNB-75
BT-549 = system: BT-549
Hs-578T = system: Hs-578T
KM12 = system: KM12
K562 = system: K562
786-0 = system: 786-0
A498 = system: A498
RXF 393 = system: RXF 393
M14 = system: M14
U-251 = system: U-251
TK-10 = system: TK-10
UO-31 = system: UO-31
SW-620 = system: SW-620
NCI-H460 = system: NCI-H460
NCI-H522 = system: NCI-H522
HT-29 = system: HT-29
SK-OV-3 = system: SK-OV-3

Measured: GI50

CC(=O)CSCc1ccccn1
inactive: HCC 2998 39.9 µM | OVCAR-5 > 100 µM | UACC-257 41.1 µM | SNB-75 29.4 µM | BT-549 47.5 µM | Hs-578T 2.69 µM | KM12 36.8 µM | K562 23.6 µM | 786-0 97.1 µM | A498 51.1 µM | RXF 393 > 100 µM | M14 60.5 µM | U-251 32.2 µM | TK-10 > 100 µM | UO-31 > 100 µM | SW-620 45.8 µM | NCI-H460 30.6 µM | NCI-H522 6.9 µM | HT-29 51.3 µM | SK-OV-3 > 100 µM

Cn1c(Sc2ccc(-c3cccnc3)n2C)ccc1-c1cccnc1
inactive: HCC 2998 20.2 µM | OVCAR-5 22.9 µM | UACC-257 12.4 µM | SNB-75 21.8 µM | BT-549 20.4 µM | Hs-578T 3.7 µM | KM12 18 µM | K562 3.12 µM | 786-0 11.5 µM | A498 20.9 µM | RXF 393 18.5 µM | M14 17.1 µM | U-251 13.1 µM | TK-10 17.3 µM | UO-31 17.5 µM | SW-620 6.93 µM | NCI-H460 15.2 µM | NCI-H522 10.3 µM | HT-29 23.7 µM | SK-OV-3 27.7 µM

N=C(N)SCc1ccc(Cl)c2ccccc12.O=[N+]([O-])c1c(O)c(Cl)cc(Cl)c1Cl
inactive: HCC 2998 2.33 µM | OVCAR-5 13 µM | UACC-257 4.72 µM | SNB-75 11.1 µM | BT-549 14.8 µM | Hs-578T 17.9 µM | KM12 13.6 µM | K562 4.66 µM | 786-0 11.3 µM | A498 9.2 µM | RXF 393 7.23 µM | M14 10.3 µM | U-251 12.9 µM | TK-10 7.67 µM | UO-31 9.98 µM | SW-620 12.2 µM | NCI-H460 8.32 µM | NCI-H522 4.56 µM | HT-29 10.2 µM | SK-OV-3 13.1 µM

Cc1cc(N(CCC#N)S(=O)(=O)c2ccccc2)ccc1/C=N/c1ccc(C(=O)O)cc1
inactive: HCC 2998 16.8 µM | OVCAR-5 20.3 µM | UACC-257 16.9 µM | SNB-75 14 µM | BT-549 > 100 µM | Hs-578T 56 µM | KM12 20.4 µM | K562 7.96 µM | 786-0 5.45 µM | A498 29.6 µM | RXF 393 1.7 µM | M14 9.77 µM | U-251 21.3 µM | TK-10 8.73 µM | UO-31 11.1 µM | SW-620 7.43 µM | NCI-H460 19.1 µM | NCI-H522 5.51 µM | HT-29 15.7 µM | SK-OV-3 34.1 µM

CCOC(=O)c1cc2c([N+](=O)[O-])c(N)ccc2s1
inactive: HCC 2998 > 100 µM | OVCAR-5 > 100 µM | UACC-257 > 100 µM | SNB-75 72.3 µM | BT-549 > 100 µM | Hs-578T > 100 µM | KM12 > 100 µM | K562 > 100 µM | 786-0 > 100 µM | A498 > 100 µM | RXF 393 > 100 µM | M14 > 100 µM | U-251 > 100 µM | TK-10 > 100 µM | UO-31 > 100 µM | SW-620 > 100 µM | NCI-H460 > 100 µM | NCI-H522 > 100 µM | HT-29 > 100 µM | SK-OV-3 > 100 µM

CS(=O)(=O)O.[Ag]
inactive: HCC 2998 14.2 µM | OVCAR-5 19.3 µM | UACC-257 10.2 µM | SNB-75 12.3 µM | BT-549 20.8 µM | Hs-578T 37.7 µM | KM12 29 µM | K562 2.23 µM | 786-0 16.3 µM | A498 20.8 µM | RXF 393 18.8 µM | M14 3.17 µM | U-251 16.3 µM | TK-10 2.42 µM | UO-31 1.78 µM | SW-620 3.01 µM | NCI-H460 20.2 µM | NCI-H522 1.92 µM | HT-29 19.3 µM | SK-OV-3 18.3 µM

C=CC1(C)CCC2C(=CCC3C(C)(COC4OC(C(=O)O)C(O)C(O)C4O)C(O)CCC23C)C1.C=CC1(C)CCC2C(=CCC3C2(C)CC(O)C(O)C3(C)COC2OC(C(=O)O)C(O)C(O)C2O)C1 (stereo not given)
inactive: HCC 2998 > 100 µM | OVCAR-5 > 100 µM | UACC-257 83.4 µM | SNB-75 > 100 µM | BT-549 > 100 µM | Hs-578T > 100 µM | KM12 > 100 µM | K562 54.5 µM | 786-0 > 100 µM | A498 > 100 µM | RXF 393 > 100 µM | M14 > 100 µM | U-251 > 100 µM | TK-10 46.1 µM | UO-31 > 100 µM | SW-620 > 100 µM | NCI-H460 > 100 µM | NCI-H522 > 100 µM | HT-29 > 100 µM | SK-OV-3 > 100 µM
